From the supplement of paper PMC12463676, “Small-molecule dissolution of stress granules by redox modulation benefits ALS models” (Nature Chemical Biology, 2025)

Columns and labels:
lipoamide = compound: NC(=O)CCCCC1CCSS1 [lipoamide]; assay: thermal stability z-score vs DMSO; higher = more thermally stabilized by treatment; conditions: HeLa, lipoamide concentration 100 µM
Protocol: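 Cellular thermal proteome profiling in HeLa cells. Cells were treated with 100 µM lipoamide for 1 h, with or without 1 mM arsenate for a further 1 h, then heated to ten temperatures (37-66.3 °C), and soluble protein was quantified by TMT mass spectrometry relative to 0.1% DMSO controls. The thermal stability score (sum of log2 fold changes minus the abundance score) was transformed to a z-score; mean of n = 3 experiments.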

potassium arsenate = compound: O=[As]([O-])(O)O.[K+] [potassium arsenate]; assay: as above; conditions: HeLa; arsenate concentration 1 mM
Protocol: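 Cellular thermal proteome profiling in HeLa cells treated with 1 mM arsenate for 1 h (DMSO pretreatment), heated to ten temperatures (37-66.3 °C). Soluble protein was quantified by TMT mass spectrometry relative to DMSO controls; the thermal stability score was transformed to a z-score; mean of n = 3 experiments.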

[1] = arsenate co-treatment: 1 mM arsenate 1 h
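Note: each temperature applied for 3 min, abundance score taken as mean log2 fold change at the two lowest temperatures, z-score obtained by mean subtraction and division by SD.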

UniProt Q13895, sequence (Q13895 whole entry): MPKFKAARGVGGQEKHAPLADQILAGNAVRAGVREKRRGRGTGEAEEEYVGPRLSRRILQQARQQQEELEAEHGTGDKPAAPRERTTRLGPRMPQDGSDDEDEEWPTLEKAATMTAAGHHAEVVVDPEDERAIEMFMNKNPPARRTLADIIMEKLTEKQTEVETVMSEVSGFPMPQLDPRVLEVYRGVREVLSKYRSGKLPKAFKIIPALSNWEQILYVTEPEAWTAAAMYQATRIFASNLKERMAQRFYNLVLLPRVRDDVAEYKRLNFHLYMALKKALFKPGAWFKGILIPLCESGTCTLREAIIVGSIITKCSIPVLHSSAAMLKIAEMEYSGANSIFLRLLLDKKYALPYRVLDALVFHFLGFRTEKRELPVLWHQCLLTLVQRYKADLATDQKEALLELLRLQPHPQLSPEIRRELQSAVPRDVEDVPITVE
UniProt O60566, sequence (O60566 whole entry): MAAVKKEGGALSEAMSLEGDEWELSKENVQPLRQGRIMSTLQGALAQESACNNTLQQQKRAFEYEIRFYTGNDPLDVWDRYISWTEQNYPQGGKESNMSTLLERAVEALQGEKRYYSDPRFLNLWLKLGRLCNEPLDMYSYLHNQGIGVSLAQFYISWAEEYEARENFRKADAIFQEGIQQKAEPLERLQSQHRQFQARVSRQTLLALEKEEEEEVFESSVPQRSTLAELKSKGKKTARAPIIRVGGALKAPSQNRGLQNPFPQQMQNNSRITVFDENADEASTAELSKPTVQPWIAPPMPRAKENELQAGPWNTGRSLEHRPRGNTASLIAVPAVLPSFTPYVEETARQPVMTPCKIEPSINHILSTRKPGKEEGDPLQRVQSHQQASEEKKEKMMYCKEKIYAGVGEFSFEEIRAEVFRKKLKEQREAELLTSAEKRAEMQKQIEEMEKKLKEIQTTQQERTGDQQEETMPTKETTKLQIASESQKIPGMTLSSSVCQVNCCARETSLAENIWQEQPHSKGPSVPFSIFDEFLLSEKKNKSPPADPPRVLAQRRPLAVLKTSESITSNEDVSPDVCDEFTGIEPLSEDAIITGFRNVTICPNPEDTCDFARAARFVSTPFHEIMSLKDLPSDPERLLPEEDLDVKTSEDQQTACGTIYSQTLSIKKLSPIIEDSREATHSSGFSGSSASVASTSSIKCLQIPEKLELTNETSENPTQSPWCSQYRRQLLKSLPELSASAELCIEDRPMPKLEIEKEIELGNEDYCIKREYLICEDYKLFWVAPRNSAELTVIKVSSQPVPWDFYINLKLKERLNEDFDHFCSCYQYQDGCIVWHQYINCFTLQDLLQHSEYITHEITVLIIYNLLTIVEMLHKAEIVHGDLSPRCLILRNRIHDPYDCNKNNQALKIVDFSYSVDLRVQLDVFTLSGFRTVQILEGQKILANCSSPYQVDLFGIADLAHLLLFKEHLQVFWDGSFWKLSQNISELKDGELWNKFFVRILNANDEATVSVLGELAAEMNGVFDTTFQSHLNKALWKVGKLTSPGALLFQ
UniProt Q9BRJ6, sequence (Q9BRJ6 whole entry): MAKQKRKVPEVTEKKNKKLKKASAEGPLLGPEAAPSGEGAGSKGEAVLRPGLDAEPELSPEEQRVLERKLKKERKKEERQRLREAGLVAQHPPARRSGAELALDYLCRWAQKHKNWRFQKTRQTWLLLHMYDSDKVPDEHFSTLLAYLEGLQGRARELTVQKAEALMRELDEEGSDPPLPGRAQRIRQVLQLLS
UniProt A6NDU8, sequence (A6NDU8 whole entry): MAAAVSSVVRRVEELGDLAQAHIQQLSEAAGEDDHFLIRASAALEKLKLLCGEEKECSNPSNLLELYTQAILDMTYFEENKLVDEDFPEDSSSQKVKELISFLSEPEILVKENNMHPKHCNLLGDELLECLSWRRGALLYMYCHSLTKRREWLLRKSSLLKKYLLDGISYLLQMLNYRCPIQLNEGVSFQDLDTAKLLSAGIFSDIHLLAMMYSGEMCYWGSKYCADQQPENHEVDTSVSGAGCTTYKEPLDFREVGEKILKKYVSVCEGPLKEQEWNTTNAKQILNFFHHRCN
UniProt Q10589, sequence (Q10589 whole entry): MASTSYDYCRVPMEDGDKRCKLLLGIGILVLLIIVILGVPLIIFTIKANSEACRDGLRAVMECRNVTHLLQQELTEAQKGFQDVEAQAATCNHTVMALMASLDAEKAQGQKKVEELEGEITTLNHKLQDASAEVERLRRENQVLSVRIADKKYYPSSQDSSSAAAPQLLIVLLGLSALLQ
UniProt Q6P1X6, sequence (Q6P1X6 whole entry): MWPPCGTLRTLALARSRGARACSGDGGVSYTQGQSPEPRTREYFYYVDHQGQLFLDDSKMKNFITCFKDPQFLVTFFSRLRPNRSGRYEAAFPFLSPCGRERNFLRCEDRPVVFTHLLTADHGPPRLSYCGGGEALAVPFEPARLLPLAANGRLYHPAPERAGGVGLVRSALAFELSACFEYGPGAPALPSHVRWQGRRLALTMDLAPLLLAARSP
UniProt Q9BUH6, sequence (Q9BUH6 whole entry): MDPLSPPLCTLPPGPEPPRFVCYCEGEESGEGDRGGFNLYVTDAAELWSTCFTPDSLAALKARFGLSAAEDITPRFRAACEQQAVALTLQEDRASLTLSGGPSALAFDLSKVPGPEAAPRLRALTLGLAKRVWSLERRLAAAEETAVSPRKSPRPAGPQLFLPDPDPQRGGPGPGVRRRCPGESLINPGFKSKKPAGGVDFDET
UniProt Q5T280, sequence (Q5T280 whole entry): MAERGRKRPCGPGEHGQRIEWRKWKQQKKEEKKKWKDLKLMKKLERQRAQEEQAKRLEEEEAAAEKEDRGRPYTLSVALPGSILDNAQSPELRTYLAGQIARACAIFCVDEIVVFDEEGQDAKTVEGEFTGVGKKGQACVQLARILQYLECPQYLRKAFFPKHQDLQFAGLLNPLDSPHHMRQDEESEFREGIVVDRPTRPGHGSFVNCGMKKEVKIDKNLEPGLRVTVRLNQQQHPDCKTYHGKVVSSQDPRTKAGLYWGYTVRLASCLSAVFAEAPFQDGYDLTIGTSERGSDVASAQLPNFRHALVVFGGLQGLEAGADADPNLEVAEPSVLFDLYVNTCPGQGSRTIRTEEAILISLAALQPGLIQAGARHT
UniProt Q96NL8, sequence (Q96NL8 whole entry): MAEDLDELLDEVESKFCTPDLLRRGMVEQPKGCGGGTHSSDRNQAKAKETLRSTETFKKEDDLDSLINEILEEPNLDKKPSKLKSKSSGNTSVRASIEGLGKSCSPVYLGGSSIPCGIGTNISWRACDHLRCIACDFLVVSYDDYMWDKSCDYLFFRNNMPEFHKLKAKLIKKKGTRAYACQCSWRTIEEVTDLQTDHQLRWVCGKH
UniProt P41223, sequence (P41223 whole entry): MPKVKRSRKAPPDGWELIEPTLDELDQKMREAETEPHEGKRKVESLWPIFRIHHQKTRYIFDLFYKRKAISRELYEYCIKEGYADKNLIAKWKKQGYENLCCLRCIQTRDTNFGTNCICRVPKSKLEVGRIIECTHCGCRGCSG
UniProt O43684, sequence (O43684 whole entry): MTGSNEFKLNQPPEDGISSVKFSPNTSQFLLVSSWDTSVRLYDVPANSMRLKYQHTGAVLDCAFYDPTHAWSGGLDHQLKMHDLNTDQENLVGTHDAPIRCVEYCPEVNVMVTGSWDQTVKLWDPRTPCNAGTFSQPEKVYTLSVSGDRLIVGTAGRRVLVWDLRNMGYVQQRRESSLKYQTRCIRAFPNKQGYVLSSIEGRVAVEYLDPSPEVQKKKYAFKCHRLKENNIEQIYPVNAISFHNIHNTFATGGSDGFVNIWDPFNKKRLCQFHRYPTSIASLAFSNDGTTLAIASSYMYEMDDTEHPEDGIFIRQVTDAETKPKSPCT
UniProt Q9Y426, sequence (Q9Y426 whole entry): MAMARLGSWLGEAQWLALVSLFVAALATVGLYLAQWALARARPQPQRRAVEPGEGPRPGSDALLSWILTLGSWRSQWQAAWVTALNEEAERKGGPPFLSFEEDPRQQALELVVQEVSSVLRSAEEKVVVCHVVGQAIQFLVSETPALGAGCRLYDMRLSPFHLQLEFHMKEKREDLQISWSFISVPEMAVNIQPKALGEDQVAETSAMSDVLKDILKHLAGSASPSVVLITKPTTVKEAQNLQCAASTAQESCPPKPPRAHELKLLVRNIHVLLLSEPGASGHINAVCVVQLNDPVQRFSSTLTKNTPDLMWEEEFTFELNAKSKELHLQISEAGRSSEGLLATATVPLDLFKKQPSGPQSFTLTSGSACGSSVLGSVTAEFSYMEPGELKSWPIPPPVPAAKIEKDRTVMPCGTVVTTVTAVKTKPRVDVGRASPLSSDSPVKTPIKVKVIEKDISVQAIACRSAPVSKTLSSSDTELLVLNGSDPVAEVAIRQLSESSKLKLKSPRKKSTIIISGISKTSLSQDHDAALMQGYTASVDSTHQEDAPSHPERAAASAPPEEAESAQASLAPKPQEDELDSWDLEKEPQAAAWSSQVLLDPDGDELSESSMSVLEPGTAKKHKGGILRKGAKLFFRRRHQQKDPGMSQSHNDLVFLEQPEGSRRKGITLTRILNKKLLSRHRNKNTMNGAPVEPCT
UniProt Q8IYL3, sequence (Q8IYL3 whole entry): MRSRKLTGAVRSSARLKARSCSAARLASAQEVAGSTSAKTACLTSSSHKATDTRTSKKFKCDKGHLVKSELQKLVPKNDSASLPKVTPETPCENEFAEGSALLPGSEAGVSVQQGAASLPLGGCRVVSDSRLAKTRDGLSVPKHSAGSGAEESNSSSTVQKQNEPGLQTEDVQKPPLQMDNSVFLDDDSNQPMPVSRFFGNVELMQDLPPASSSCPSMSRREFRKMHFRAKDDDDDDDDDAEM
UniProt Q9NZ63, sequence (Q9NZ63 whole entry): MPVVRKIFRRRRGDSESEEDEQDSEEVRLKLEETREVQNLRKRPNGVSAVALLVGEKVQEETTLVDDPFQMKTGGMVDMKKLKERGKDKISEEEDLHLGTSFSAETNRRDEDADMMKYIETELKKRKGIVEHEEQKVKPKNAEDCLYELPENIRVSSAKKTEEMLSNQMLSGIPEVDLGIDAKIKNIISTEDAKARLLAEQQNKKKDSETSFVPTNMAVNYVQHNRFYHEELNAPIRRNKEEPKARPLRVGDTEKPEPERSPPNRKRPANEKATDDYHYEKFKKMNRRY

Target	thermal stability z-score (lipoamide; [1])	thermal stability z-score (lipoamide; arsenate co-treatment: none)	thermal stability z-score (potassium arsenate)
BSG (UniProt P35613)	0.714	0.573	0.265
BST2 (UniProt Q10589)	0.265	0.606	0.172
BTAF1 (UniProt O14981)	0.085	0.175	-0.192
BTBD1 (UniProt Q9H0C5)	-0.0349	0.00713	0.0567
BTBD10 (UniProt Q9BSF8)	0.00662	0.0899	-0.162
BTF3 (UniProt P20290)	0.457	0.48	0.076
BTF3L4 (UniProt Q96K17)	0.212	0.17	-0.154
BTN2A1 (UniProt Q7KYR7)	-0.659	-0.638	0.0455
BTN3A2 (UniProt P78410)	0.00462	0.0294	-1.15
BUB1 (UniProt O43683)	-0.0469	0.0303	0.029
BUB1B (UniProt O60566)	0.0397	0.232	0.247
BUB3 (UniProt O43684)	-0.0475	-0.134	-0.833
BUD31 (UniProt P41223)	0.0866	0.568	-3.38
BYSL (UniProt Q13895)	-0.197	0.349	0.424
BZW1 (UniProt Q7L1Q6)	0.452	0.578	0.483
BZW2 (UniProt Q9Y6E2)	0.428	0.313	-0.183
C1GALT1 (UniProt Q9NS00)	-0.00802	-0.575	-0.0716
C1GALT1C1 (UniProt Q96EU7)	-0.776	-0.734	0.1
C1ORF52 (UniProt Q8N6N3)	0.477	0.0555	-0.417
C1ORF122 (UniProt Q6ZSJ8)	1.07	1.18	0.28
C1ORF123 (UniProt Q9NWV4)	-0.384	-0.409	-0.929
C1ORF131 (UniProt Q8NDD1)	1.04	-0.388	-0.733
C1ORF174 (UniProt Q8IYL3)	-2.39	-1.46	-0.845
C1ORF198 (UniProt Q9H425)	-0.254	0.135	0.635
C1QBP (UniProt Q07021)	-0.549	0.0636	-1.28
C1QTNF6 (UniProt Q9BXI9)	-0.0299	0.334	0.794
C1S (UniProt P09871)	0.0855	-0.147	0.0687

Target	thermal stability z-score (lipoamide; [1])	thermal stability z-score (lipoamide; arsenate co-treatment: none)	thermal stability z-score (potassium arsenate)
C2CD2 (UniProt Q9Y426)	-0.506	0.109	0.234
C2CD5 (UniProt Q86YS7)	0.332	0.297	-0.133
C2ORF47 (UniProt Q8WWC4)	0.0998	-0.181	1.09
C2ORF49 (UniProt Q9BVC5)	0.426	0.229	0.0813
C3 (UniProt P01024)	-1.67	-1.75	-0.371
C3ORF58 (UniProt Q8NDZ4)	-0.093	-0.000578	0.287
C4BPA (UniProt P04003)	-5.7	-5.12	1.08
C4BPB (UniProt P20851)	-5.06	-5.39	0.18
C5ORF22 (UniProt Q49AR2)	-0.259	0.324	1.13
C5ORF51 (UniProt A6NDU8)	-1	-0.695	-0.796
C6ORF106 (UniProt Q9H6K1)	-0.69	-0.401	0.242
C7ORF50 (UniProt Q9BRJ6)	-0.995	-0.353	-0.593
C8ORF33 (UniProt Q9H7E9)	0.833	-0.384	1.19
C8ORF37 (UniProt Q96NL8)	0.385	0.235	0.161
C8ORF59 (UniProt Q8N0T1)	0.481	0.508	-0.38
C8ORF82 (UniProt Q6P1X6)	0.229	-0.151	-0.319
C9ORF40 (UniProt Q8IXQ3)	-0.129	0.33	0.0372
C9ORF64 (UniProt Q5T6V5)	-0.191	0.121	-0.254
C9ORF78 (UniProt Q9NZ63)	0.058	0.278	0.106
C9ORF85 (UniProt Q96MD7)	0.0672	1.62	0.132
C9ORF114 (UniProt Q5T280)	0.288	0.265	-0.288
C9ORF142 (UniProt Q9BUH6)	-0.55	-0.635	-0.706
C10ORF76 (UniProt Q5T2E6)	-0.9	0.306	0.613
C11ORF31|SELH	0.115	0.162	-0.153
C11ORF54 (UniProt Q9H0W9)	2.36	3.02	0.829
C11ORF68 (UniProt Q9H3H3)	-0.438	-0.551	0.538
C11ORF73 (UniProt Q53FT3)	0.0228	0.0059	-0.162
